The target in experiment [1] is T1, Melatonin receptor type 1A (Homo sapiens, UniProt P48039). Briefly: Binding affinity for human Melatonin receptor type 1A stably transfected in human embryonic kidney cells (HEK 293) using 2-[125I]iodomelatonin as radioligand. Format: cell-based, HEK293.
For experiment [2], the target named is T2, Melatonin receptor type 1B (Homo sapiens, UniProt P49286).
T2 sequence (P49286 whole entry): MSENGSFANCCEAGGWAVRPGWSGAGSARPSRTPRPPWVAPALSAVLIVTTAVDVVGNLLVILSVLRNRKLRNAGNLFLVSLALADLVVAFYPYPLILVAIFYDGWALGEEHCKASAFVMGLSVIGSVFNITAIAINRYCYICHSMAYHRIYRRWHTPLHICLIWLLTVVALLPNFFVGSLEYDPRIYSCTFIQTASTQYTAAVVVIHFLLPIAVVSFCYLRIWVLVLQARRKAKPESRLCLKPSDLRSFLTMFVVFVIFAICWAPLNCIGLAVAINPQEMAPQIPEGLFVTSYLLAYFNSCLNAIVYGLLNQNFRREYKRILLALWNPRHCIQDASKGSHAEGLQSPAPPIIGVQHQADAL
The experiment can be described thus: Binding affinity for human Melatonin receptor type 1B stably transfected in human embryonic kidney cells (HEK 293) using 2-[125I]iodomelatonin as radioligand. In kind it is cell-based, HEK293.

For experiment [3], the target named is T3, Melatonin receptor type 1B (Homo sapiens) (UniProt P49286).
T3 sequence (whole entry): T2 sequence (P49286 whole entry)
The conditions noted are these: CHO.

The target of experiment [4] is T1, Melatonin receptor type 1A. The conditions noted are these: CHO.

Calls of active or inactive are those of the source. No cut-off for these calls is given here.

T1 sequence (P48039 whole entry): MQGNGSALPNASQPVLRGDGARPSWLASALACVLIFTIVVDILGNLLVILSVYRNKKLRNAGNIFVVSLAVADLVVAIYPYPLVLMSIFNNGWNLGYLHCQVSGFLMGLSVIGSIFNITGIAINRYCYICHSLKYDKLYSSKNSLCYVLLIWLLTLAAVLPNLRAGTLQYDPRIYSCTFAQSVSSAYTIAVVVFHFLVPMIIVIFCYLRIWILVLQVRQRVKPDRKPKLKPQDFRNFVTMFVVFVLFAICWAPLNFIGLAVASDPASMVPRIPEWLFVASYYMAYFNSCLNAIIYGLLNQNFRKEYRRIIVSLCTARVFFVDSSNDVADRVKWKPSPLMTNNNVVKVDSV

Consider `CC(=O)NCCc1cccc2ccc(OCCCCCCCCOc3ccc4cccc(CCNC(C)=O)c4c3)cc12`, for which the Ki in experiment [1] worked out at 0.05 nM; in experiment [2] it was 0.18 nM.

`CC(=O)NCCc1cccc2ccc(OCCCCOc3ccc4cccc(CCNC(C)=O)c4c3)cc12`: the Ki in experiment [1] is 0.6 nM; in experiment [2], 72.7 nM.

As for `CC(=O)NCCc1cccc2ccc(OCCCCCCOc3ccc4cccc(CCNC(C)=O)c4c3)cc12`, the Ki in experiment [1] is 0.08 nM; in experiment [2] it was 2.33 nM.

For the molecule `CC(=O)NCCc1cccc2ccc(OCCCCCCCCCCOc3ccc4cccc(CCNC(C)=O)c4c3)cc12`, the Ki in experiment [1] turned out to be 0.03 nM; in experiment [2], 0.04 nM.

For the molecule `CC(=O)NCCc1cccc2ccc(OCCCCCOc3ccc4cccc(CCNC(C)=O)c4c3)cc12`, the Ki in experiment [1] is 0.05 nM; in experiment [2], 1.74 nM.

For `CC(=O)NCCc1cccc2ccc(OCCOc3ccc4cccc(CCNC(C)=O)c4c3)cc12`, the Ki in experiment [1] is 2.05 nM; in experiment [2] it was 182 nM.

For the molecule `CC(=O)NCCc1cccc2ccc(OCCCOc3ccc4cccc(CCNC(C)=O)c4c3)cc12`, the IA result in experiment [3] and in experiment [4] was “inactive” each time. The Ki in experiment [1] was 0.5 nM; in experiment [2], 112 nM.

For the origin of these results see ChEMBL document CHEMBL1136735, “Design and synthesis of naphthalenic dimers as selective MT1 melatoninergic ligands” (J Med Chem, 2003).
